Earlier results, collected in US20060168671A1, “Injection of caprine sperm factor (cSF), phospholipase C zeta (PLCzeta) and adenophostin A as alternative methods of activation during nuclear transfer in the caprine species” (priority 2005, published 2006).

Experiments:
MII mouse eggs = details: Jellerette et al., 2000
IP3R = details: relative to IP3; Takahashi et al., 1994

For `Nc1ncnc2c1ncn2[C@@H]1O[C@H](CO)[C@@H](O[C@H]2O[C@H](CO)[C@@H](OP(=O)(O)O)[C@H](OP(=O)(O)O)[C@H]2O)[C@H]1OP(=O)(O)O` [Adenophostin A], which “[Ca2+]i oscillations” value (MII mouse eggs) is on record?
Its value is “induces fertilization-like oscillations”.

What about the activation rates (MII mouse eggs) of the same compound?
Its activation rates is “high activation rates”.

And the “affinity to IP3R greater than IP3 itself” value (IP3R)?
The value was 10-100 fold.
